Test results taken from ChEMBL document CHEMBL5608174, “Synthesis and biological evaluation of 4-phenyl-5-quinolinyl substituted isoxazole analogues as potent cytotoxic and tubulin polymerization inhibitors against ESCC” (Eur J Med Chem, 2024).
The source made the active and inactive calls. No cut-off for these calls is given here.

Experiments:
[1] = tested on: KYSE-70 cell line; test: Induction of apoptosis in human KYSE-70 cells assessed as late apoptotic cells at 20 nmol/L incubated for 48 hrs by Annexin V-FITC/PI staining based flow cytometry analysis (reference value: 3.01%); assay type: functional
[2] = tested on: KYSE-450; test: Antiproliferative activity against human KYSE-450 cells assessed as inhibition of cell growth incubated for 48 hrs by MTT assay; assay type: functional, cell-based; settings: KYSE-450, 48 h
[3] = organism: Sus scrofa; test: Inhibition of porcine brain tubulin polymerization measured every 30 secs for 120 times in the presence of GTP by fluorescence based assay; settings: time 60.0 min
[4] = target: T1, Tubulin (Homo sapiens) (UniProt P68371+Q9H4B7+P0DPH7+P68366+Q13509+Q71U36+P04350+Q3ZCM7+P07437+P68363+Q9BQE3+Q6PEY2+Q13885+Q9BVA1+Q9BUF5); test: Inhibition of tubulin polymerization in human KYSE-30 cells assessed as reduction in filamentous microtubule structure formation at 5 to 20 nmol/L incubated for 24 hrs by DAPI staining based fluorescence microscopic analysis; assay type: cell-based; settings: dose 5-20 nmol/L
[5] = tested on: KYSE-30; test: Inhibition of colony formation in human KYSE-30 cells at 4 nmol/L incubated for 7 days by crystal violet staining based analysis; assay type: functional, cell-based; settings: time 7.0 day
[6] = tested on: Esophageal squamous cell carcinoma cell; test: Antiproliferative activity against human Esophageal squamous cell carcinoma cells assessed as reduction in EdU-positive cells at 5 to 20 nmol/L incubated for 48 hrs by EdU staining based inverted fluorescence microscopic analysis; assay type: functional; settings: dose 5-20 nmol/L
[7] = tested on: KYSE-30; test: Induction of morphological changes in human KYSE-30 cells assessed as fragmentation at 5 to 20 nmol/L incubated for 48 hrs by Bright field microscopic analysis; assay type: functional, cell-based; settings: dose 5-20 nmol/L
[8] = tested on: KYSE-30; test: Induction of morphological changes in human KYSE-30 cells assessed as increase in proportion of dead cells at 5 to 20 nmol/L incubated for 48 hrs by Calcein AM/PI staining based inverted fluorescence microscopic analysis; assay type: functional, cell-based; settings: dose 5-20 nmol/L
[9] = tested on: KYSE-30; test: Induction of apoptosis in human KYSE-30 cells assessed as early apoptotic cells at 5 nmol/L incubated for 48 hrs by Annexin V-FITC/PI staining based flow cytometry analysis (reference value: 4.38 %); assay type: functional
[10] = tested on: KYSE-30; test: Induction of apoptosis in human KYSE-30 cells assessed as necrotic cells at 5 nmol/L incubated for 48 hrs by Annexin V-FITC/PI staining based flow cytometry analysis (reference value: 1.59 %); assay type: functional
[11] = tested on: KYSE-30; test: Induction of apoptosis in human KYSE-30 cells assessed as viable cells at 10 nmol/L incubated for 48 hrs by Annexin V-FITC/PI staining based flow cytometry analysis (reference value: 88.76 %); assay type: functional; settings: read-out: Activity
[12] = tested on: KYSE-30; test: Induction of apoptosis in human KYSE-30 cells assessed as early apoptotic cells at 10 nmol/L incubated for 48 hrs by Annexin V-FITC/PI staining based flow cytometry analysis (reference value: 4.38 %); assay type: functional
[13] = tested on: KYSE-30; test: Induction of apoptosis in human KYSE-30 cells assessed as necrotic cells at 10 nmol/L incubated for 48 hrs by Annexin V-FITC/PI staining based flow cytometry analysis (reference value: 1.59 %); assay type: functional
[14] = tested on: KYSE-30; test: Induction of apoptosis in human KYSE-30 cells assessed as early apoptotic cells at 20 nmol/L incubated for 48 hrs by Annexin V-FITC/PI staining based flow cytometry analysis (reference value: 4.38 %); assay type: functional
[15] = tested on: KYSE-70 cell line; test: Induction of apoptosis in human KYSE-70 cells assessed as late apoptotic cells at 10 nmol/L incubated for 48 hrs by Annexin V-FITC/PI staining based flow cytometry analysis (reference value: 3.01%); assay type: functional
[16] = tested on: KYSE-70 cell line; test: Induction of apoptosis in human KYSE-70 cells assessed as early apoptotic cells at 20 nmol/L incubated for 48 hrs by Annexin V-FITC/PI staining based flow cytometry analysis (reference value: 1.78%); assay type: functional
[17] = tested on: Esophageal squamous cell carcinoma cell; test: Induction of apoptosis in human Esophageal squamous cell carcinoma cell assessed as […] of Bax level at 5 to 20 nmol/L incubated for 48 hrs by Western blot analysis; assay type: functional, cell-based; settings: dose 5-20 nmol/L
[18] = tested on: Esophageal squamous cell carcinoma cell; test: Induction of apoptosis in human Esophageal squamous cell carcinoma cell assessed as increase in caspase-3 activation at 5 to 20 nmol/L incubated for 48 hrs by Western blot analysis; assay type: functional, cell-based; settings: dose 5-20 nmol/L
[19] = tested on: Esophageal squamous cell carcinoma cell; test: Induction of apoptosis in human Esophageal squamous cell carcinoma cell assessed as increase in caspase-7 activation at 5 to 20 nmol/L incubated for 48 hrs by Western blot analysis; assay type: functional, cell-based; settings: dose 5-20 nmol/L
[20] = tested on: Esophageal squamous cell carcinoma cell; test: Induction of apoptosis in human Esophageal squamous cell carcinoma cell assessed as increase in caspase-9 activation at 5 to 20 nmol/L incubated for 48 hrs by Western blot analysis; assay type: functional, cell-based; settings: dose 5-20 nmol/L
[21] = tested on: KYSE-30; test: Inhibition of cell migration in human KYSE-30 cells at 2 to 6 nmol/L incubated upto 48 hrs by wound healing assay; assay type: functional, cell-based; settings: dose 2-6 nmol/L
[22] = tested on: KYSE-30; test: Antitumor activity against human KYSE-30 cells xenografted in female BALB/c-nu nude mouse assessed as reduction in tumor volume at 6 to 12 mg/kg, ip administered daily for 15 days; assay type: functional, organism-based; settings: dose 6-12 mg/kg, time 15.0 day
[23] = Toxicity in female BALB/c-nu nude mouse xenografted with human KYSE-30 cells assessed as effect on serum ALT level at 6 to 12 mg/kg, ip administered for 15 days by biochemical analysis; assay type: organism-based; settings: in vivo, 360 h, dose 6-12 mg/kg, time 15 day
[24] = Toxicity in female BALB/c-nu nude mouse xenografted with human KYSE-30 cells assessed as effect on serum AST level at 6 to 12 mg/kg, ip administered for 15 days by biochemical analysis; assay type: organism-based; settings: in vivo, 360 h, dose 6-12 mg/kg, time 15 day
[25] = Toxicity in female BALB/c-nu nude mouse xenografted with human KYSE-30 cells assessed as effect on serum blood urea nitrogen level at 6 to 12 mg/kg, ip administered for 15 days by biochemical analysis; assay type: organism-based; settings: in vivo, 360 h, dose 6-12 mg/kg, time 15 day
[26] = Toxicity in female BALB/c-nu nude mouse xenografted with human KYSE-30 cells assessed as effect on serum creatinine level at 6 to 12 mg/kg, ip administered for 15 days by biochemical analysis; assay type: organism-based; settings: in vivo, 360 h, dose 6-12 mg/kg, time 15 day
[27] = Toxicity in female BALB/c-nu nude mouse xenografted with human KYSE-30 cells assessed as change in spleen pathology at 6 to 12 mg/kg, ip administered for 15 days by H and E staining based analysis; assay type: organism-based; settings: in vivo, 360 h, dose 6-12 mg/kg, time 15 day
[28] = Toxicity in female BALB/c-nu nude mouse xenografted with human KYSE-30 cells assessed as change in lung pathology at 6 to 12 mg/kg, ip administered for 15 days by H and E staining based analysis; assay type: organism-based; settings: in vivo, 360 h, dose 6-12 mg/kg, time 15 day
[29] = Cytotoxicity against HUVEC cells assessed as inhibition of cell growth incubated for 48 hrs by MTT assay; assay type: toxicity, cell-based; settings: human
[30] = target: T1, Tubulin (Homo sapiens); test: Inhibition of tubulin polymerization in human KYSE-70 cells assessed as effect on mitotic phase at 5 to 20 nmol/L incubated for 24 hrs by DAPI staining based fluorescence microscopic analysis; assay type: cell-based; settings: dose 5-20 nmol/L
[31] = tested on: KYSE-30; test: Effect on nuclear replication in human KYSE-30 cells at 5 to 20 nmol/L incubated for 24 hrs by DAPI staining based fluorescence microscopic analysis; assay type: functional, cell-based; settings: dose 5-20 nmol/L
[32] = tested on: KYSE-30
Description: Antiproliferative activity against human KYSE-30 cells assessed as inhibition of cell proliferation incubated for 48 hrs by MTT assay

[33] = tested on: HCT-116; test: cells; settings: Homo sapiens, HCT-116, 48 h
Description: Antiproliferative activity against human HCT-116 cells assessed as inhibition of cell proliferation incubated for 48 hrs by MTT assay

COc1ccc(-c2cnoc2-c2cc(C)nc3ccccc23)cc1
Activity [1]: 17.48% | IC50 [2]: 19.2 nM | inhibition [3]: Active | inhibition [4]: Active | inhibition [5]: Active | Activity [6]: Active | Activity [7]: Active | Activity [8]: Active | Activity [9]: 46.64% | Activity [10]: 2.61% | viability at 0.01 µM [11]: 37.5% | Activity [12]: 47.75% | Activity [13]: 2.86% | Activity [14]: 47.76% | Activity [15]: 14.3% | Activity [16]: 30.31% | Activity [17]: Active | Activity [18]: Active | Activity [19]: Active | Activity [20]: Active | inhibition [21]: Active | Activity [22]: Active | Activity [23]: Non-Toxic | Activity [24]: Non-Toxic | Activity [25]: Non-Toxic | Activity [26]: Non-Toxic | Activity [27]: Non-Toxic | Activity [28]: Non-Toxic | IC50 at 48 h [29]: > 710 nM | inhibition [30]: Active | Activity [31]: inactive | IC50 [32]: 13.1 nM | IC50 [33]: 26 nM
